Experimental data from patent publication US10239916B2, “Controlled modulation of amino acid side chain length of peptide antigens” (Board of Regents, The University of Texas System, priority 2002, dated 2019).
One block for each substance: values may come before it. Where no end group is shown, it is not given here. [ ]: non-standard residue; d: D form. Nle = CCCC[C@H](N)C(=O)O; Nva = CCC[C@H](N)C(=O)O

Tests used:
[1] = system: CD8+ cells; experiment: Expansion and survival of peptide-stimulated T cells (numbers of live / CD8+ cells); assay type: cell-based, human; settings: for number / survival of stimulated cells at restimulation compared with E75: donor 2; for percentage of live cells: donor 2, 30 days after priming, primed and restimulated
[2] = system: PBMC; experiment: IFN-γ induction in PBMC/T cells stimulated with peptide-pulsed autologous DC (ELISA); assay type: cell-based, human; parameters: IFN-γ induction at priming compared with E75: dose or concentration left out as unconfirmed; settings: for IFN-γ induction at priming compared with E75: two weak E75-responder donors, […] μM on autologous DC; for IFN-γ at priming compared with E75: donor 1; for increase of IFN-γ at priming over E75: donor 2
[3] = system: T2 cells pulsed with E75; experiment: CTL assay: lysis of peptide-pulsed T2 cells by peptide-induced CTL; assay type: cell-based, human; settings: for recognition of E75 by variant-induced CTL compared with E75-induced CTL: donor 1, priming; for E75-specific lytic activity of variant-induced CTL compared with E75-CTL: donor 2
[4] = system: PBMC; experiment: IL-2 induction in PBMC/T cells stimulated with peptide-pulsed autologous DC (ELISA); assay type: cell-based, human; settings: Donor 3
[5] = system: Bcl-2, Bcl-xL, Bad; assay type: cell-based, human; settings: for up-regulation of Bcl-2 and Bcl-XL: F42SK-CTL restimulated with agonists pulsed on T2
[6] = system: SKOV3.A2 cells; experiment: Cold-target inhibition of lysis of SKOV3.A2 by T2-E75; assay type: cell-based, human
[7] = target: HLA-A2 (Homo sapiens, UniProt P04439, D140Y/D185E/D98H/E176V/E277Q/G131W/G231S/I119V/I121R/I166T/I218V/N151K/N90K/P208A/P217A/Q86G/Q94H/R138H/R169H); experiment: Molecular modeling of peptide:HLA-A2 complex, accessible surface area (GETAREA 1.1)
[8] = system: CD8+ cells; experiment: Two color FACS (CD62L, CFSE) of peptide-stimulated CD8+ cells; assay type: cell-based, human; settings: Donor 1 CD8+ cells, 20 additional days in IL-2
[9] = system: ovarian tumor OVA-16 (HLA-A2+, HER-2high); experiment: Cold-target inhibition of cytolysis of OVA-16 by T2-E75; assay type: cell-based, human; settings: S5K-CTL
Excerpt: (§1) FIGS. 11A-11C. […] FIGS. 11A and 11B, Cold target inhibition of cytolysis of OVA-16 (HLA-A2, HER-2^high). […] E:T ratio was 10:1; the ratio of cold to hot targets was 1:1. C, IFN γ induction. IL-12 was used at 3 IU (300 pg/ml); the responders to SKOV3. A2 stimulator ratio was 40:1.
(§2) Similar inhibition (38%) was observed against SKOV3.A2 in a 16-h assay. […] The levels of inhibition of lysis indicative of specific recognition were similar to those levels observed with donor 2, E75-CTL, and S5K-CTL (FIG. 8E). S5K-CTL was also tested for the ability to secrete IFN-γ at an encounter with the ovarian tumor SKOV3.A2 and its HLA-A2^− counterpart SKOV3. This was necessary because the tumor and responding lymphocytes shared HLA-A3.

[10] = system: SKOV3.A2; experiment: IFN-γ secretion of S5K-CTL at encounter with ovarian tumor SKOV3.A2; assay type: cell-based, human; settings: SKOV3.A2 stimulator, IL-12 as costimulator
Excerpt: as §1, §2

[11] = system: T2 cells pulsed with E75; settings: cited from earlier work
[12] = system: E75+TCR cells; experiment: E75+TCR cells determined with E75 dimers (dE75), flow cytometry; assay type: cell-based, human

Substance: A7.2: E75 with Ala7 replaced by norvaline (NVal), 2 CH2 groups extending linearly from Ala7 (KIFGSL[Nva]FL)
numbers of CD8+ cells, schedule 2×A7.3 to 2×A7.2 relative to 4×A7.3 [1]: 4 times
IFN-γ induction at priming ([2]; Donor 3): stronger inducer of IFN-γ
IFN-γ response to E75 of primed T cells relative to E75-primed T cells ([2]; E75 at 2 μM, within 16 h, Donor 1): 3 fold
IFN-γ induction ([2]; cells from donors and ovarian cancer patients which did not respond to E75): higher levels of IFN-γ than A7.3 and G4.3
IFN-γ induction at priming compared with E75 [2]: higher levels of IFN-γ than E75
number of E75-specific LU, schedule 2×A7.3 to 2×A7.2 relative to 4×A7.3 [3]: two times higher
increase in number of E75-lytic specific effectors, 2×A7.3 to 2×A7.2 vs 4×A7.3 ([3]; 4×2): 8 fold
E75 level recognized by induced CTL ([3]; A7.3-induced, A7.3-restimulated CTL after additional stimulation with A7.2): 50 nM
sensitivity for E75 relative to E75-induced CTL ([3]; CTL at 50 nM level): at least 100 fold
lytic activity induced in rested A7.3 CTL by restimulation ([3]; tested 30 h later, no IL-2): somewhat higher levels of lytic activity

change in the surface between E75 and A7.3 [7]: 0.036%
Substance: K1FGSL (NLeu)FL (KIFGSL[Nle]FL) [A7.3, 10]
IL-2 induction at priming [4]: stronger inducer of IL-2 than A7.2
up-regulation of Bcl-2 and Bcl-XL [5]: significantly stronger stimulators for up-regulation of Bcl-2 and Bcl-XL than F42
Bcl-xL to Bad ratio ([5]; S5K-CTL CD8+ cells stimulated 96 h, 25 μg/ml): even higher Bcl-xL to Bad ratios than E75
inhibition of SKOV3.A2 lysis by T2-E75 ([6]; A7.3-induced CTL-TIL, 5 h CTL assay): 60%
inhibition of lysis of SKOV3-A2 by T2-E75 ([6]; CTL-3 primed with E75 and restimulated, T2-E75 at 100 nM): 27%
IFN-γ induction at priming compared with E75 [2]: higher levels of IFN-γ than E75
E75 level recognized by induced CTL ([3]; A7.3-induced CTL-TIL restimulated with A7.3): 200 nM
exogenous pulsed E75 concentration recognized by induced CTL ([3]; Donor 4 (CTL-4), three stimulations): 25 nM

Substance: KIFGALAFL [S5A]
number / survival of stimulated cells at restimulation compared with E75 [1]: dropped faster
percentage of live cells [1]: decrease in live cells
IFN-γ at priming compared with E75 [2]: higher levels of IFN-γ
increase of IFN-γ at priming over E75 [2]: 100%
recognition of E75 by variant-induced CTL compared with E75-induced CTL [3]: recognized E75 better than CTL induced by E75
E75-specific lytic activity of variant-induced CTL compared with E75-CTL [3]: significantly higher

Substance: KIFGGLAFL [S5G]
number / survival of stimulated cells at restimulation compared with E75 [1]: dropped faster
percentage of live cells [1]: decrease in live cells
IFN-γ at priming compared with E75 [2]: higher levels of IFN-γ
increase of IFN-γ at priming over E75 [2]: 64%
recognition of E75 by variant-induced CTL compared with E75-induced CTL [3]: recognized E75 better than CTL induced by E75
CD62L+ cells in the resulting population [8]: 4.8%

Substance: KIFGKLAFL [S5K]
up-regulation of Bcl-2 and Bcl-XL [5]: slightly stronger up-regulator of Bcl-2 than E75
up-regulation of Bcl-2 ([5]; S5K-CTL): slightly stronger up-regulator of Bcl-2 than E75
inhibition of lysis of SKOV3.A2 by T2-E75 ([6]; S5K-CTL, 16-h assay): 38%
inhibition of tumor lysis by T2-E75 compared with E75-CTL ([6]; donor 2, E:T 30:1, cold:hot 10:1): inhibited less by T2-E75 than lysis by E75-CTL
inhibition of lysis of OVA-16 by T2-E75 ([9]; 8-h CTL assay): 21%
inhibition of lysis of OVA-16 by T2-E75 ([9]; 16-h assay): 45%
increase in number of CD8+ cells of S5K-CTL ([1]; 50 μg/ml peptide + anti-Fas, 4 days): 27%
numbers of live cells recovered after stimulation and expansion in IL-2 ([1]; S5K-CTL stimulated with peptide-pulsed T2): 2.9 ×10^6 cells
increase in number of CD8+ cells of S5K-CTL ([1]; […] μg/ml peptide + anti-Fas, 4 days): 0.93%
number / survival of stimulated cells at restimulation compared with E75 [1]: survived longer than E75-stimulated cells
survival of responders ([1]; donor 3, after third stimulation): better survival in responders than E75
increase in number of CD8+ cells of S5K-CTL ([1]; in the absence of CH11): no increase in cell number
IFN-γ and IL-2 response of S5K-CTL compared with E75 [2]: higher levels of IFN-γ, but lower levels of IL-2
IFN-γ at priming compared with E75 [2]: higher levels of IFN-γ
increase of IFN-γ at priming over E75 [2]: 36%
IFN-γ induction compared with E75 ([2]; healthy donor responding weakly to E75): higher IFN-γ induction
IFN-γ secretion by peptide-induced CTL [10]: high levels of IFN-γ within 20 h
exogenous pulsed E75 recognized by F42SK-CTL [11]: 5000 ng/mL
lysis of T2-E75 by peptide-induced CTL ([3]; E75 10 μg/ml, E:T ratio 40:1): 25.4 % lysis
recognition of E75 by variant-induced CTL compared with E75-induced CTL [3]: CTL induced by priming with E75 recognized E75 better
E75-specific lytic activity of variant-induced CTL compared with E75-CTL [3]: lower than the recognition by E75-CTL
recognition (lysis) of peptide-pulsed T2 by E75-CTL ([3]; donor 3 E75-CTL, peptide 50 μg/ml): 32%
Bcl-2 levels in small E75+TCR lymphocytes ([12]; S5K-CTL): higher in the small lymphocytes
MCF of E75+TCR expression in small lymphocytes ([12]; S5K-CTL stimulated 1 wk): 180

Substance: KIFGSLAYL [F8Y]
IFN-γ at priming compared with E75 [2]: lower levels of IFN-γ
recognition of E75 by variant-induced CTL compared with E75-induced CTL [3]: CTL induced by priming with E75 recognized E75 better

Substance: KIFSGSLAKL [F8K]
IFN-γ at priming compared with E75 [2]: lower levels of IFN-γ
recognition of E75 by variant-induced CTL compared with E75-induced CTL [3]: CTL induced by priming with E75 recognized E75 better
